ChEMBL document CHEMBL5247624, “N-sulfonylpiperidinedispiro-1,2,4,5-tetraoxanes exhibit potent in vitro antiplasmodial activity and in vivo efficacy in mice infected with P. berghei ANKA” (Eur J Med Chem, 2022)
Activity calls are given as the source filed them. No cut-off for these calls is given here.

What was measured:
Plasmodium berghei [1] = test: Antiplasmodial activity against Plasmodium berghei ANKA infected in Swiss albino mouse assessed as parasite recrudescence by measuring parasitemia at 60 mg/kg/day,ip qd administrated for 4 subsequent days by Giemsa staining assay; format: functional
Plasmodium falciparum [2] = test: Antiplasmodial activity against erythrocytic stage of chloroquine-sensitive Plasmodium falciparum 3D7 assessed as inhibition of parasite growth incubated for 3 days by HRP2-ELISA assay; format: functional, organism-based; details: 3D7, 72 h
Huh-7 = test: Cytotoxicity against human Huh-7 cells assessed as reduction in cell viability incubated for 72 hrs by MTT assay; format: functional
Plasmodium falciparum [3] = test: Antiplasmodial activity against erythrocytic stage of chloroquine-sensitive Plasmodium falciparum 3D7 infected in human RBC assessed as increase in intracellular ROS level at 10 uM incubated for 3 hrs by H2DCFDA probe based flow cytometry; format: functional, organism-based; details: Erythrocyte
Plasmodium berghei [4] = test: Antiplasmodial activity against Plasmodium berghei ANKA infected in Swiss albino mouse assessed as partial cure by measuring parasitemia at 60 mg/kg/day,ip qd measured after 48 hrs post administration by Giemsa staining assay; format: functional, organism-based
Plasmodium falciparum [5] = test: Antiplasmodial activity against erythrocytic stage of chloroquine-sensitive Plasmodium falciparum 3D7 infected in human RBC assessed as increase in intracellular ROS level by measuring green fluorescence at 10 uM incubated for 3 hrs by H2DCFDA probe based fluorescence microscopic analysis; format: functional, organism-based; details: Erythrocyte
Plasmodium falciparum [6] = test: Antiplasmodial activity against Plasmodium falciparum W2 infected in human RBC assessed as inhibition of parasite growth incubated for 48 hrs by flow cytometry; format: functional, organism-based; details: W2, Erythrocyte
Plasmodium berghei [7] = test: Antiplasmodial activity against Plasmodium berghei infected in Swiss Webster mouse assessed as reduction of parasitaemia by measuring partial cure at 2 mg/kg/day,po administrated for 4 days; format: functional; design: scale not given: the % may be the effect or the level left; details: time 4 day
Plasmodium berghei [8] = test: Antiplasmodial activity against Plasmodium berghei ANKA infected in Swiss albino mouse assessed as reduction of parasitaemia at 60 mg/kg/day,ip qd measured after 72 hrs post administration by Giemsa staining assay; format: functional, organism-based
Plasmodium berghei [9] = test: Antiplasmodial activity against Plasmodium berghei ANKA infected in Swiss albino mouse assessed as reduction of parasitaemia at 60 mg/kg/day,ip qd administrated for 5 subsequent days by Giemsa staining assay relative to control; format: functional; design: scale not given: the % may be the effect or the level left
Plasmodium berghei [10] = test: Antiplasmodial activity against Plasmodium berghei ANKA infected in Swiss albino mouse assessed as reduction of parasitaemia at 60 mg/kg/day,ip qd measured at 24 hrs post administration by Giemsa staining assay relative to control; format: functional; design: scale not given: the % may be the effect or the level left
Plasmodium berghei [11] = test: Antiplasmodial activity against Plasmodium berghei ANKA infected in Swiss albino mouse assessed as increase in parasite clearance rate at 60 mg/kg/day,ip qd administrated for 5 subsequent days by Giemsa staining assay; format: functional, organism-based
Plasmodium berghei [12] = test: Antiplasmodial activity against Plasmodium berghei ANKA infected in Swiss albino mouse assessed as increase in animal survival rate at 60 mg/kg/day,ip qd administrated for 5 subsequent days; format: functional, organism-based
Plasmodium berghei [13] = test: Antiplasmodial activity against Plasmodium berghei ANKA infected in Swiss albino mouse assessed as reduction of parasitaemia at 60 mg/kg/day,ip qd measured after 72 hrs post administration by Giemsa staining assay relative to control; format: functional; design: scale not given: the % may be the effect or the level left

| Structure (SMILES) | IC50 (Plasmodium falciparum [2]) | CC50 (Huh-7) | also measured |
| --- | --- | --- | --- |
| CCCS(=O)(=O)N1CCC2(CC1)OOC1(CCCCCC1)OO2 | 4.7 nM | > 100 µg/mL | Activity (Plasmodium berghei [1]): >0.1%; Activity (Plasmodium falciparum [3]): Active; Activity (Plasmodium berghei [4]): inactive; Activity (Plasmodium falciparum [5]): Active |
| CCS(=O)(=O)N1CCC2(CC1)OOC1(CCCCCC1)OO2 | 62.5 nM | > 100 µg/mL | – |
| Cc1ccc(S(=O)(=O)N2CCC3(CC2)OOC2(CCCCC2)OO3)cc1 | 40.2 nM | > 100 µg/mL | – |
| O=S(=O)(CCCCl)N1CCC2(CC1)OOC1(CCCCC1)OO2 | 40.6 nM | > 100 µg/mL | – |
| CS(=O)(=O)N1CCC2(CC1)OOC1(CCCC1)OO2 | 41.9 nM | > 100 µg/mL | – |
| CC(C)(N)CNC(=O)O[C@@H]1CCC[C@]2(C1)OOC1(O2)C2CC3CC(C2)CC1C3 (stereo partly drawn) | – | – | EC50 (Plasmodium falciparum [6]): 1.8 nM; Activity (Plasmodium berghei [7]): 100% |
| C[C@@H]1CC[C@H]2[C@@H](C)C(=O)O[C@@H]3O[C@@]4(C)CC[C@@H]1[C@]32OO4 [ARTEMISININ] | 4.74 nM | – | – |
| CCCS(=O)(=O)N1CCC2(CC1)OOC(C)(C)OO2 | 101 nM | > 100 µg/mL | – |
| CCCS(=O)(=O)N1CCC2(CC1)OOC(C)(c1ccc(Cl)cc1)OO2 | 8360 nM | > 100 µg/mL | – |
| O=S(=O)(c1ccc(Br)cc1F)N1CCC2(CC1)OOC1(CCCCC1)OO2 | 322 nM | > 100 µg/mL | – |
| COc1ccc(S(=O)(=O)N2CCC3(CC2)OOC2(CCCCCC2)OO3)cc1 | 46.6 nM | > 100 µg/mL | – |
| O=S(=O)(c1ccc(F)cc1)N1CCC2(CC1)OOC1(CCCCC1)OO2 | 77.4 nM | > 100 µg/mL | – |
| CCS(=O)(=O)N1CCC2(CC1)OOC1(CCCC1)OO2 | 11.8 nM | > 100 µg/mL | – |
| CCCS(=O)(=O)N1CCC2(CC1)OOC(C)(c1ccccc1)OO2 | 129 nM | > 100 µg/mL | – |
| CCS(=O)(=O)N1CCC2(CC1)OOC1(CCCCC1)OO2 | 10.5 nM | > 100 µg/mL | Activity (Plasmodium berghei [8]): Active; Activity (Plasmodium berghei [1]): >0.1%; Activity (Plasmodium falciparum [3]): Active; Activity (Plasmodium berghei [4]): inactive; Activity (Plasmodium berghei [9]): 100%; Activity (Plasmodium falciparum [5]): Active |
| CCCS(=O)(=O)N1CCC2(CC1)OOC(C)(C1CC1)OO2 | 60.2 nM | > 100 µg/mL | – |
| CCN(CC)CCCC(C)Nc1ccnc2cc(Cl)ccc12 (stereo not drawn) [CHLOROQUINE] | 4.36 nM | > 100 µg/mL | Activity (Plasmodium berghei [10]): 100% |
| O=S(=O)(CCCCl)N1CCC2(CC1)OOC1(CCCC1)OO2 | 8.43 nM | > 100 µg/mL | Activity (Plasmodium berghei [8]): Active; Activity (Plasmodium berghei [11]): Active; Activity (Plasmodium berghei [1]): inactive; Activity (Plasmodium berghei [10]): <0.1%; Activity (Plasmodium berghei [12]): Active; Activity (Plasmodium berghei [13]): 100%; Activity (Plasmodium falciparum [3]): Active; Activity (Plasmodium berghei [4]): Active; Activity (Plasmodium falciparum [5]): Active |
| CCCCS(=O)(=O)N1CCC2(CC1)OOC1(CCCC1)OO2 | 41.9 nM | > 100 µg/mL | – |
| CCCS(=O)(=O)N1CCC2(CC1)OOC1(CCCC1)OO2 | 9450 nM | > 100 µg/mL | – |
| CCCS(=O)(=O)N1CCC2(CC1)OOC(C)(C(C)C)OO2 | 21.4 nM | > 100 µg/mL | – |
| O=S(=O)(c1ccc(Br)cc1F)N1CCC2(CC1)OOC1(CCCC1)OO2 | 44.2 nM | > 100 µg/mL | – |

| Structure (SMILES) | IC50 (Plasmodium falciparum [2]) | CC50 (Huh-7) | also measured |
| --- | --- | --- | --- |
| C1CCCC2(CC1)OOC1(CCCCCC1)OO2 | 39.4 nM | > 100 µg/mL | – |
| C[C@H]1[C@H](OC(=O)CCC(=O)O)O[C@@H]2O[C@@]3(C)CC[C@H]4[C@H](C)CC[C@@H]1[C@@]24OO3 [ARTESUNATE] | 3.3 nM | > 100 µg/mL | – |
| CCCS(=O)(=O)N1CCC2(CC1)OOC(C)(CC)OO2 | 23.3 nM | > 100 µg/mL | – |
| Cc1ccc(S(=O)(=O)N2CCC3(CC2)OOC2(CCCC2)OO3)cc1 | 24.2 nM | > 100 µg/mL | – |
| CCCS(=O)(=O)N1CCC2(CC1)OOC1(CCCCC1)OO2 | 12.9 nM | > 100 µg/mL | Activity (Plasmodium berghei [1]): >0.1%; Activity (Plasmodium falciparum [3]): Active; Activity (Plasmodium berghei [4]): inactive; Activity (Plasmodium falciparum [5]): Active |
| CS(=O)(=O)N1CCC2(CC1)OOC1(CCN(S(C)(=O)=O)CC1)OO2 | 39.6 nM | > 100 µg/mL | – |
| CCCCS(=O)(=O)N1CCC2(CC1)OOC1(CCCCC1)OO2 | 57.2 nM | > 100 µg/mL | – |
| CS(=O)(=O)N1CCC2(CC1)OOC1(CCCCCC1)OO2 | 9.67 nM | > 100 µg/mL | Activity (Plasmodium berghei [1]): >0.1%; Activity (Plasmodium falciparum [3]): Active; Activity (Plasmodium berghei [4]): inactive; Activity (Plasmodium falciparum [5]): Active |
| O=S(=O)(Cc1ccccc1)N1CCC2(CC1)OOC1(CCCCCC1)OO2 | 64.7 nM | > 100 µg/mL | – |
| O=S(=O)(c1ccc(Br)cc1F)N1CCC2(CC1)OOC1(CCCCCC1)OO2 | 10.4 nM | > 100 µg/mL | Activity (Plasmodium berghei [1]): >0.1%; Activity (Plasmodium falciparum [3]): Active; Activity (Plasmodium berghei [4]): inactive; Activity (Plasmodium falciparum [5]): Active |
| C[C@H]1[C@@H](O)O[C@@H]2O[C@@]3(C)CC[C@H]4[C@H](C)CC[C@@H]1[C@@]24OO3 [ARTENIMOL] | 0.7 nM | > 100 µg/mL | – |
| CS(=O)(=O)N1CCC2(CC1)OOC1(CCCCC1)OO2 | 16.3 nM | > 100 µg/mL | – |
| CCCC1(C)OOC2(CCN(S(=O)(=O)CCC)CC2)OO1 | 10.9 nM | > 100 µg/mL | Activity (Plasmodium berghei [1]): >0.1%; Activity (Plasmodium falciparum [3]): Active; Activity (Plasmodium berghei [4]): inactive; Activity (Plasmodium falciparum [5]): Active |
| O=S(=O)(Cc1ccccc1)N1CCC2(CC1)OOC1(CCCCC1)OO2 | 49.4 nM | > 100 µg/mL | – |
| Cc1ccc(S(=O)(=O)N2CCC3(CC2)OOC2(CCCCCC2)OO3)cc1 | 55.3 nM | > 100 µg/mL | – |
| O=S(=O)(CCCCl)N1CCC2(CC1)OOC1(CCCCCC1)OO2 | 13 nM | > 100 µg/mL | – |
| O=S(=O)(Cc1ccccc1)N1CCC2(CC1)OOC1(CCCC1)OO2 | 20.6 nM | > 100 µg/mL | – |
| COc1ccc(S(=O)(=O)N2CCC3(CC2)OOC2(CCCCC2)OO3)cc1 | 32.2 nM | > 100 µg/mL | – |
| COc1ccc(S(=O)(=O)N2CCC3(CC2)OOC2(CCCC2)OO3)cc1 | 25.3 nM | > 100 µg/mL | – |
| CCCCS(=O)(=O)N1CCC2(CC1)OOC1(CCCCCC1)OO2 | 13.8 nM | > 100 µg/mL | – |
| O=S(=O)(c1ccc(F)cc1)N1CCC2(CC1)OOC1(CCCCCC1)OO2 | 37.4 nM | > 100 µg/mL | – |
| O=S(=O)(c1ccc(F)cc1)N1CCC2(CC1)OOC1(CCCC1)OO2 | 67 nM | > 100 µg/mL | – |
